Experimental data taken from patent publication US7799907B2, “Method for the preparation of 2′-deoxy-2′,2′-difluorocytidine” (Hanmi Pharm. Co., Ltd, priority 2004, dated 2010).

Assay: Stability of moisture content of the hemihydrate and dihydrate forms on storage
Type: physicochemical
Settings: for stability for the moisture content changes: under the conditions shown in Table 1
[1] = 40° C. under 75% relative humidity, 1 day
[2] = 40° C. under 75% relative humidity, 7 days
[3] = 40° C. under 75% relative humidity, 14 days

Compound | Moisture content (%) [1] [%] | Moisture content (%) [2] [%] | Moisture content (%) [3] [%] | Moisture content (%) (Air, 1 day) | Moisture content (%) (Air, 7 days) | Moisture content (%) (Air, 14 days) | stability for the moisture content changes
2′-Deoxy-2′,2′-difluorocytidine hemihydrate | 3.7 | 3.8 | 3.8 | 3.6 | 3.7 | 3.4 | stable
Nc1ccn([C@@H]2O[C@H](CO)[C@@H](O)C2(F)F)c(=O)n1.O.O [Dihydrate, 2′-Deoxy-2′,2′-difluorocytidine dihydrate] | 12.1 | 11.9 | 11.7 | 11.6 | 11.8 | 11.7 | stable
